# Laboratory results from US10072023B2, “Diarylethene compounds and uses thereof” (SWITCH MATERIALS, INC., priority 2011, dated 2018).
# Assay: Absorbance at photostationary state (PSS) under simulated sunlight or 365 nm light
# Assay type: physicochemical
# Design: λ max: unit not given here
# Settings: for Absorbance at PSS, 365 nm: 365 nm light source; for Absorbance at PSS, 365 nm / Absorbance at PSS, full / Absorbance at PSS, +UV / λ max: 2.0×10^−5 M in triglyme; for sensitivity index: ratio of PSS under 365 nm light to PSS under full spectrum light (without UV blocking film); for Absorbance at PSS, full: simulated sunlight (QSUN solar simulator), no UV blocking film; for Absorbance at PSS, +UV: simulated sunlight with UV blocking film (cutoff 370 nm); for λ max: wavelength of maximum absorbance in the visible range, ring-closed isoform
# Method: Absorbance at a PSS for selected compounds was measured at 2.0×10^−5 M in triglyme in the absence (full) or presence (+UV) of a UV blocking film with a UV cutoff wavelength of 370 nm (10% transmission at 370 nm), using simulated sunlight (QSUN solar simulator) as a light source, or a 365 nm light source; these PSS are reported in Tables 1.5. […] “Switch” refers to the ability (yes or no) of the compound to be reversibly converted under photochromic and electrochromic conditions between a ring-open isomer and ring-closed isomer.
# A sensitivity index (SI) is a ratio of the PSS under 365 nm light to the PSS under full spectrum light (without UV blocking film). SI is an indicator of the sensitivity of the compound to the composition of the incident light (a change in the ratio of UV and visible components)—photochemical ring-opening is induced by a portion of the visible light spectrum.
# Photostationary State (PSS) UV/Vis spectra are obtained using an OceanOptics™ Spectrophotometer until absorption in the visible region of the spectrum stabilizes. A 2×10^−5M solution of compound in solvent is prepared, and photofaded using visible light until absorption in the visible region of the spectrum stabilizes. The sample is then irradiated with simulated sunlight (QSUN SS-150 Solar Simulator with xenon arc lamp) until the absorption spectrum stabilizes. To obtain PSS in the presence of a UV blocking film, a second sample is prepared and irradiated as described, with a UV blocking film inserted in the light path when irradiating.
SMILES,"Absorbance at PSS, 365 nm",sensitivity index,"Absorbance at PSS, full","Absorbance at PSS, +UV",λ max
"FC1(F)C(c2cc(-c3ccccc3)sc2-c2ccccc2)=C(c2cc(-c3cccs3)sc2-c2cccs2)C(F)(F)C1(F)F [S005, 3′-(2-(2,5-diphenylthiophen-3-yl)-3,3,4,4,5,5-hexafluorocyclopent-1-en-1-yl)-2,2′:5′,2″-terthiophene]",0.195,2.71,0.072,0.028,618
"Cc1ccc(-c2cc(C3=C(c4cc(-c5ccc(C)s5)sc4-c4ccc(C)s4)C(F)(F)C(F)(F)C3(F)F)c(-c3ccc(C)s3)s2)s1 [S007, 3′,3″″-(perfluorocyclopent-1-ene-1,2-diyl)bis(5,5″-dimethyl-2,2′:5′,2″-terthiophene)]",0.353,1.67,0.212,0.154,650
"FC1(F)C(c2c(-c3ccccc3)sc3ccccc23)=C(c2c(-c3ccccc3)sc3ccccc23)C(F)(F)C1(F)F [S014, 3,3′-(perfluorocyclopent-1-ene-1,2-diyl)bis(2-phenylbenzo[b]thiophene)]",0.011,2.75,0.004,0.006,525
O=C(O)c1ccc(-c2cc(C3=C(c4cc(-c5ccc(C(=O)O)s5)sc4-c4ccc(C(=O)O)s4)C(F)(F)C(F)(F)C3(F)F)c(-c3ccc(C(=O)O)s3)s2)s1 [S024],0.102,5.10,0.02,0.018,650
"FC1(F)C(c2cc(-c3ccc(Cl)s3)sc2-c2ccc(Cl)s2)=C(c2cc(-c3ccc(Cl)s3)sc2-c2ccc(Cl)s2)C(F)(F)C1(F)F [S026, 3′,3″″-(perfluorocyclopent-1-ene-1,2-diyl)bis(5,5″-dichloro-2,2′:5′,2″-terthiophene)]",0.383,1.53,0.251,0.196,645
"Cc1ccc(-c2sc(-c3cccs3)cc2C2=C(c3cc(-c4cccs4)sc3-c3ccc(C)s3)C(F)(F)C(F)(F)C2(F)F)s1 [S027, 3′,3″″-(perfluorocyclopent-1-ene-1,2-diyl)bis(5-methyl-2,2′:5′,2″-terthiophene)]",0.281,1.80,0.156,0.116,645
"Cc1ccc(-c2ccc(-c3cc(C4=C(c5cc(-c6ccc(-c7ccc(C)s7)s6)sc5-c5ccc(C)s5)C(F)(F)C(F)(F)C4(F)F)c(-c4ccc(C)s4)s3)s2)s1 [S034, 3′,3″″′-(perfluorocyclopent-1-ene-1,2-diyl)bis(5,5″′-dimethyl-2,2′:5′,2″:5″,2″′-quaterthiophene)]",0.468,1.73,0.271,0.246,690
"FC1(F)C(c2nc(-c3ccccc3)sc2-c2ccccc2)=C(c2nc(-c3ccccc3)sc2-c2ccccc2)C(F)(F)C1(F)F [S035, 4,4′-(perfluorocyclopent-1-ene-1,2-diyl)bis(2,5-diphenylthiazole)]",0.416,8.32,0.05,0.016,540
Cc1sc(-c2cc(C3=C(c4cc(-c5sc(C)c6c5OCCO6)sc4-c4sc(C)c5c4OCCO5)C(F)(F)C(F)(F)C3(F)F)c(-c3sc(C)c4c3OCCO4)s2)c2c1OCCO2 [S036],0.174,7.25,0.024,0.016,665
"N#Cc1ccc(-c2ccc(-c3cc(C4=C(c5cc(-c6ccc(-c7ccc(C#N)s7)s6)sc5-c5cccs5)C(F)(F)C(F)(F)C4(F)F)c(-c4cccs4)s3)s2)s1 [S037, 4″,4″″″-(perfluorocyclopent-1-ene-1,2-diyl)bis(([2,2′:5′,2″:5″,2″′-quaterthiophene]-5-carbonitrile))]",0.442,1.18,0.375,0.355,680
"FC1(F)C(c2cc(-c3ccc(/C=C/c4ccccc4)s3)sc2-c2cccs2)=C(c2cc(-c3ccc(/C=C/c4ccccc4)s3)sc2-c2cccs2)C(F)(F)C1(F)F [S038, (E)-4′,4″″-(perfluorocyclopent-1-ene-1,2-diyl)bis(5-((E)-styryl)-2,2′:5′,2″-terthiophene)]",0.642,1.41,0.456,0.431,690
"c1ccc(-c2cc(-c3nc(-c4ccccc4)sc3-c3cc(-c4ccccc4)sc3-c3ccccc3)c(-c3ccccc3)s2)cc1 [S055, 4,5-bis(2,5-diphenylthiophen-3-yl)-2-phenylthiazole]",0.191,4.55,0.042,0.008,640
"FC1(F)C(c2cc(-c3ccc(Cl)cc3)sc2-c2ccc(Cl)cc2)=C(c2cc(-c3ccc(Cl)cc3)sc2-c2ccc(Cl)cc2)C(F)(F)C1(F)F [S056, 3,3′-(perfluorocyclopent-1-ene-1,2-diyl)bis(2,5-bis(4-chlorophenyl)thiophene)]",0.194,2.73,0.071,0.026,610
"CC(=O)c1ccc(-c2cc(C3=C(c4cc(-c5ccccc5)sc4-c4ccc(C(C)(C)C)cc4)C(F)(F)C(F)(F)C3(F)F)c(-c3ccc(C(C)(C)C)cc3)s2)cc1 [S065, 1-(4-(5-(4-tert-butylphenyl)-4-(2-(2-(4-tert-butylphenyl)-5-phenylthiophen-3-yl)-3,3,4,4,5,5-hexafluorocyclopent-1-enyl)thiophen-2-yl)phenyl)ethanone]",0.281,2.04,0.138,0.054,625
"CC(C)(C)c1ccc(-c2sc(-c3ccc(C(C)(C)O)cc3)cc2C2=C(c3cc(-c4ccc(C(C)(C)O)cc4)sc3-c3ccc(C(C)(C)C)cc3)C(F)(F)C(F)(F)C2(F)F)cc1 [S067, 2,2′-((4,4′-(perfluorocyclopent-1-ene-1,2-diyl)bis(5-(4-(tert-butyl)phenyl)thiophene-4,2-diyl))bis(4,1-phenylene))bis(propan-2-ol)]",0.182,2.68,0.068,0.03,615
"CC(C)(C)c1ccc(-c2sc(C(C)(C)C)cc2C2=C(c3cc(C(C)(C)C)sc3-c3ccc(C(C)(C)C)s3)C(F)(F)C(F)(F)C2(F)F)s1 [S073, 3,3′-(perfluorocyclopent-1-ene-1,2-diyl)bis(5,5′-di-tert-butyl-2,2′-bithiophene)]",0.06,5.71,0.0105,0.006,550
